In article PMC7928206 (Toxicology in vitro : an international journal published in …, 2021):

Experiments:
[1] = Observed stability of the compound; conditions: also propensity to adhere to glass
[2] = molecular target: rat serum butyrylcholinesterase (BChE) (Rattus norvegicus, UniProt Q9JKC1); assay type: biochemical
[3] = molecular target: T1, rat brain acetylcholinesterase (AChE) (Rattus norvegicus, UniProt P37136); assay type: biochemical; conditions: in brain and peripheral tissues
T1 sequence (P37136 32-614): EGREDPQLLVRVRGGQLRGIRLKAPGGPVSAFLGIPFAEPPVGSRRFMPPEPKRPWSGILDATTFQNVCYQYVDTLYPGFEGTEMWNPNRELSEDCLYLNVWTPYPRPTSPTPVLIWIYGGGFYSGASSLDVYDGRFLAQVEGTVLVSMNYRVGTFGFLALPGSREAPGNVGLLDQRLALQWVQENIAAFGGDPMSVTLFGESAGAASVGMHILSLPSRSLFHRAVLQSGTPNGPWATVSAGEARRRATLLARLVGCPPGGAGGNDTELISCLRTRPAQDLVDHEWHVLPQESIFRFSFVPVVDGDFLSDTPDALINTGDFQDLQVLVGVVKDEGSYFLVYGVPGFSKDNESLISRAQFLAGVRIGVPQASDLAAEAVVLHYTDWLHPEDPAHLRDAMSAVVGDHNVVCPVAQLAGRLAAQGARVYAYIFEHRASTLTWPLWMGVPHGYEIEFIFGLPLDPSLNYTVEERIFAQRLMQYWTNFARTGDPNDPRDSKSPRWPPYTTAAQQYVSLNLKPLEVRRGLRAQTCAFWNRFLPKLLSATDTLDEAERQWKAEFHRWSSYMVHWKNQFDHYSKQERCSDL

rat serum butyrylcholinesterase (BChE), sequence (Q9JKC1 24-597): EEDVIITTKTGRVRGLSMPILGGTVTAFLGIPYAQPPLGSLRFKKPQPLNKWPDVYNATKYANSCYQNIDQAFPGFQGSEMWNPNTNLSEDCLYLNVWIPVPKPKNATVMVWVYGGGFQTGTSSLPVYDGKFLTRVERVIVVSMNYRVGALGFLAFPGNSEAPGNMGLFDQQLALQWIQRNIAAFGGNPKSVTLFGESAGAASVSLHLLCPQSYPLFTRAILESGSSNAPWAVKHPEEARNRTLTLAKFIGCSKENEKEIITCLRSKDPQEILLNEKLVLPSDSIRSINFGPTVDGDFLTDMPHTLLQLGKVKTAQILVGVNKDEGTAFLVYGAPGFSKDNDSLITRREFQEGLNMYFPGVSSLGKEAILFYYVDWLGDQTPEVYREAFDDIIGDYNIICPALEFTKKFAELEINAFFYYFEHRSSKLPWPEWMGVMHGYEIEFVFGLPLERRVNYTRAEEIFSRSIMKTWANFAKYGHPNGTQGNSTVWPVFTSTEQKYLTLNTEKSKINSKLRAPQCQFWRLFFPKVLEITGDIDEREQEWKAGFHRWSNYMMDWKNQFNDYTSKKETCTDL

SMILES: CCOP(=O)(OCC)Oc1cc(C)nc(C(C)C)n1 [Diazoxon]
- stability, result in words [1]: particularly unstable

SMILES: COP(=O)(OC)SCn1nnc2ccccc2c1=O [Azinphos-methyl-oxon]
- Serum BChE inhibition, result in words [2]: not good inhibitors of serum BChE

SMILES: CCOP(=O)(OCC)Oc1nc(Cl)c(Cl)cc1Cl [Chlorpyrifos-oxon]
- fold more potent AChE inhibitor than ethyl-ronnel-oxon [3]: about 70 fold
